Assay results as given in patent US9708316B2 (BRISTOL-MYERS SQUIBB COMPANY, priority 2014, dated 2017).

What was measured:
HIS-TGFβR1 T204D = target: T1, HIS-TGFβR1 T204D (Homo sapiens, UniProt P36897, T204D); assay: HTRF probe-displacement assay, HIS-TGFβR1 T204D; format: binding; details: read-out: TGFβR1 (μM) IC50
T1 sequence (P36897 34-503 T204D): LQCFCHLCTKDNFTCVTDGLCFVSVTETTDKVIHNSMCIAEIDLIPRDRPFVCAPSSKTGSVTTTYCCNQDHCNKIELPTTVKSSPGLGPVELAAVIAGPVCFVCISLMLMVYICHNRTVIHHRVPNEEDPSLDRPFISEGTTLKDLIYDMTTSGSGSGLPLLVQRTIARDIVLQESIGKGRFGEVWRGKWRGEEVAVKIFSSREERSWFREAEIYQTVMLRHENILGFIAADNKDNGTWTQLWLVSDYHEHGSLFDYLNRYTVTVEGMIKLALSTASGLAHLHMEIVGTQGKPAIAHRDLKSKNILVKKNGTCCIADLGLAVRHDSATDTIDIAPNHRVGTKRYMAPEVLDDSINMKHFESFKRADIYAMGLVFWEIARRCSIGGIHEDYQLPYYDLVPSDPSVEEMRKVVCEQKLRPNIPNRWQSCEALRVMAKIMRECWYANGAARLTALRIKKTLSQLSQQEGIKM

HIS-TGFβR2 WT = HIS-TGFβR2 WT (Homo sapiens, UniProt P37173); assay: HTRF probe-displacement assay, HIS-TGFβR2 WT; format: binding
Sequence of HIS-TGFβR2 WT (P37173 23-567): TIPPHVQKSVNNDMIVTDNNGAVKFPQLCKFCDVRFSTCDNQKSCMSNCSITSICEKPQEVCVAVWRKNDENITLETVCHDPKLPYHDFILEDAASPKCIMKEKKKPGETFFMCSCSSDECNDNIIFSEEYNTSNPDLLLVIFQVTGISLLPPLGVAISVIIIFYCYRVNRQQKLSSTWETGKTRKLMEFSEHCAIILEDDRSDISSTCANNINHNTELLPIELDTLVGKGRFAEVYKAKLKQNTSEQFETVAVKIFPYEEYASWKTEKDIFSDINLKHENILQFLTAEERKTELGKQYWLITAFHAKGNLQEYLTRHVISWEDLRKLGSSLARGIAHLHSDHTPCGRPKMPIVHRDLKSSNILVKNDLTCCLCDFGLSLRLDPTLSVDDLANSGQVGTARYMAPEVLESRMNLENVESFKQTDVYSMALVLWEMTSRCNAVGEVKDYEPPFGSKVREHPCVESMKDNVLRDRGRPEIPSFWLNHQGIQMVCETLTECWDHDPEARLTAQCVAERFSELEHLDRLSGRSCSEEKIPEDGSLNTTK

IC50 (HIS-TGFβR1 T204D) | IC50 (HIS-TGFβR2 WT) | SMILES
0.32 µM | 0.49 µM | CC(=O)Nc1cc(-c2[nH]c3cccnc3c2-c2cc(C)cc(Cl)n2)ccn1 [Example 30, N-{4-[3-(6-Chloro-4-methylpyridin-2-yl)-1H-pyrrolo[3,2-b]pyridin-2-yl]pyridin-2-yl}acetamide]
0.019 µM | 0.66 µM | CC(=O)Nc1cc(-c2[nH]c3cccnc3c2-c2cc(C)ccn2)ccn1 [Example 31, N-{4-[3-(4-Methylpyridin-2-yl)-1H-pyrrolo[3,2-b]pyridin-2-yl]pyridin-2-yl}acetamide]
0.049 µM | 0.44 µM | CC(=O)Nc1cc(-c2[nH]c3cccnc3c2-c2cc(Cl)ccn2)ccn1 [Example 32, N-{4-[3-(4-Chloropyridin-2-yl)-1H-pyrrolo[3,2-b]pyridin-2-yl]pyridin-2-yl}acetamide]
0.005 µM | > 15 µM | CC(=O)Nc1cc(-c2[nH]c3cccnc3c2-c2ccc(Cl)c(C)n2)ccn1 [Example 33, N-{4-[3-(5-Chloro-6-methylpyridin-2-yl)-1H-pyrrolo[3,2-b]pyridin-2-yl]pyridin-2-yl}acetamide]
0.002 µM | 0.13 µM | CC(=O)Nc1cc(-c2[nH]c3ccc(F)nc3c2-c2cccc(Cl)n2)ccn1 [Example 34, N-{4-[3-(6-Chloropyridin-2-yl)-5-fluoro-1H-pyrrolo[3,2-b]pyridin-2-yl]pyridin-2-yl}acetamide]
0.002 µM | 0.06 µM | COc1ccc(-c2c(-c3ccnc(NC(C)=O)c3)[nH]c3ccc(F)nc23)cn1 [Example 36, N-{4-[5-Fluoro-3-(6-methoxypyridin-3-yl)-1H-pyrrolo[3,2-b]pyridin-2-yl]pyridin-2-yl}acetamide]
0.002 µM | > 15 µM | COc1ccc(-c2c(-c3ccnc(NC(C)=O)c3)[nH]c3ccc(F)nc23)nc1 [Example 37, N-{4-[5-Fluoro-3-(5-methoxypyridin-2-yl)-1H-pyrrolo[3,2-b]pyridin-2-yl]pyridin-2-yl}acetamide]
0.002 µM | 0.11 µM | CC(=O)Nc1cc(-c2[nH]c3cc(F)cnc3c2-c2cccc(Cl)n2)ccn1 [Example 38, N-{4-[3-(6-Chloropyridin-2-yl)-6-fluoro-1H-pyrrolo[3,2-b]pyridin-2-yl]pyridin-2-yl}acetamide]
0.002 µM | > 15 µM | COc1ccc(-c2c(-c3ccnc(NC(C)=O)c3)[nH]c3cc(F)cnc23)nc1 [Example 39, N-{4-[6-Fluoro-3-(5-methoxypyridin-2-yl)-1H-pyrrolo[3,2-b]pyridin-2-yl]pyridin-2-yl}acetamide]
0.005 µM | 0.067 µM | COc1ccc(-c2c(-c3ccnc(NC(C)=O)c3)[nH]c3cc(F)cnc23)cn1 [Example 40, N-{4-[6-Fluoro-3-(6-methoxypyridin-3-yl)-1H-pyrrolo[3,2-b]pyridin-2-yl]pyridin-2-yl}acetamide]
0.002 µM | 0.13 µM | CC(=O)Nc1cc(-c2[nH]c3cc(Cl)cnc3c2-c2cccc(Cl)n2)ccn1 [Example 41, N-{4-[3-(6-Chloropyridin-2-yl)-6-chloro-1H-pyrrolo[3,2-b]pyridin-2-yl]pyridin-2-yl}acetamide]
0.004 µM | 0.46 µM | CC(=O)Nc1cc(-c2[nH]c3cc(Cl)cnc3c2-c2ccc(F)cn2)ccn1 [Example 42, N-{4-[6-Chloro-3-(5-fluoropyridin-2-yl)-1H-pyrrolo[3,2-b]pyridin-2-yl]pyridin-2-yl}acetamide]
0.002 µM | 0.068 µM | COc1ccc(-c2c(-c3ccnc(NC(C)=O)c3)[nH]c3cc(Cl)cnc23)cn1 [Example 43, N-{4-[6-Chloro-3-(6-methoxypyridin-3-yl)-1H-pyrrolo[3,2-b]pyridin-2-yl]pyridin-2-yl}acetamide]
0.027 µM | 0.34 µM | CC(=O)Nc1cc(-c2[nH]c3cc(Cl)cnc3c2-c2cc(C)c(F)cn2)ccn1 [Example 44, N-{4-[6-Chloro-3-(5-fluoro-4-methylpyridin-2-yl)-1H-pyrrolo[3,2-b]pyridin-2-yl]pyridin-2-yl}acetamide]
0.003 µM | 0.11 µM | CC(=O)Nc1cc(-c2[nH]c3cc(Cl)cnc3c2-c2cccc(F)n2)ccn1 [Example 45, N-{4-[6-Chloro-3-(6-fluoropyridin-2-yl)-1H-pyrrolo[3,2-b]pyridin-2-yl]pyridin-2-yl}acetamide]
0.008 µM | > 15 µM | CC(=O)Nc1cc(-c2[nH]c3cc(Cl)cnc3c2-c2ccc(Cl)cn2)ccn1 [Example 46, N-{4-[6-Chloro-3-(5-chloropyridin-2-yl)-1H-pyrrolo[3,2-b]pyridin-2-yl]pyridin-2-yl}acetamide]

IC50 (HIS-TGFβR1 T204D) | IC50 (HIS-TGFβR2 WT) | SMILES
0.004 µM | > 15 µM | COc1ccc(-c2c(-c3ccnc(NC(C)=O)c3)[nH]c3cc(Cl)cnc23)nc1 [Example 47, N-{4-[6-Chloro-3-(5-methoxypyridin-2-yl)-1H-pyrrolo[3,2-b]pyridin-2-yl]pyridin-2-yl}acetamide]
0.001 µM | 0.076 µM | COc1cnc2c(-c3cccc(Cl)n3)c(-c3ccnc(NC(C)=O)c3)[nH]c2c1 [Example 48, N-{4-[3-(6-Chloropyridin-2-yl)-6-methoxy-1H-pyrrolo[3,2-b]pyridin-2-yl]pyridin-2-yl}acetamide]
0.003 µM | 0.24 µM | COc1cnc2c(-c3ccc(F)cn3)c(-c3ccnc(NC(C)=O)c3)[nH]c2c1 [Example 49, N-{4-[3-(5-Fluoropyridin-2-yl)-6-methoxy-1H-pyrrolo[3,2-b]pyridin-2-yl]pyridin-2-yl}acetamide]
0.003 µM | 6.57 µM | COc1cnc2c(-c3ccc(Cl)cn3)c(-c3ccnc(NC(C)=O)c3)[nH]c2c1 [Example 50, N-{4-[3-(5-Chloropyridin-2-yl)-6-methoxy-1H-pyrrolo[3,2-b]pyridin-2-yl]pyridin-2-yl}acetamide]
0.002 µM | 0.61 µM | COc1cnc2c(-c3ccc(F)c(C)n3)c(-c3ccnc(NC(C)=O)c3)[nH]c2c1 [Example 51, N-{4-[3-(5-Fluoro-6-methylpyridin-2-yl)-6-methoxy-1H-pyrrolo[3,2-b]pyridin-2-yl]pyridin-2-yl}acetamide]
0.041 µM | 0.45 µM | COc1ccc(-c2c(-c3ccnc(N)c3)[nH]c3cccnc23)cn1 [Example 52, 4-[3-(6-Methoxypyridin-3-yl)-1H-pyrrolo[3,2-b]pyridin-2-yl]pyridin-2-amine]
0.002 µM | 0.005 µM | COc1ccc(-c2c(-c3ccnc(NC(=O)C4CC4)c3)[nH]c3cccnc23)cn1 [Example 53, N-{4-[3-(6-Methoxypyridin-3-yl)-1H-pyrrolo[3,2-b]pyridin-2-yl]pyridin-2-yl}cyclopropanecarboxamide]
0.021 µM | 3.61 µM | COc1ccc(-c2c(-c3ccnc(NC(C)=O)c3)n(C)c3cccnc23)cn1 [Example 54, N-{4-[3-(6-Methoxypyridin-3-yl)-1-methyl-1H-pyrrolo[3,2-b]pyridin-2-yl]pyridin-2-yl}acetamide]
0.003 µM | 0.069 µM | CC(=O)Nc1cc(-c2[nH]c3nccnc3c2-c2cccc(Cl)n2)ccn1 [Example 55, N-{4-[7-(6-Chloropyridin-2-yl)-5H-pyrrolo[2,3-b]pyrazin-6-yl]pyridin-2-yl}acetamide]
0.017 µM | 1.1 µM | CNC(=O)c1cc(Cl)nc2c(-c3ccc(OC)nc3)c(-c3ccnc(NC(C)=O)c3)[nH]c12 [Example 56, 5-Chloro-2-(2-acetamidopyridin-4-yl)-3-(6-methoxypyridin-3-yl)-N-methyl-1H-pyrrolo[3,2-b]pyridine-7-carboxamide]
0.019 µM | 0.11 µM | CNC(=O)c1ccnc2c(-c3ccc(OC)nc3)c(-c3ccnc(NC(C)=O)c3)[nH]c12 [Example 57, 2-(2-Acetamidopyridin-4-yl)-3-(6-methoxypyridin-3-yl)-N-methyl-1H-pyrrolo[3,2-b]pyridine-7-carboxamide]
0.017 µM | 9.23 µM | COc1ccc(-c2c(-c3ccnc(NC(C)=O)c3)[nH]c3c(C(=O)NC(CO)CO)cc(Cl)nc23)cn1 [Example 58, 5-Chloro-N-(1,3-dihydroxypropan-2-yl)-2-(2-acetamidopyridin-4-yl)-3-(6-methoxypyridin-3-yl)-1H-pyrrolo[3,2-b]pyridine-7-carboxamide]
0.021 µM | 6.37 µM | COc1ccc(-c2c(-c3ccnc(NC(C)=O)c3)[nH]c3c(C(=O)NC(CO)CO)ccnc23)cn1 [Example 59, N-(1,3-Dihydroxypropan-2-yl)-2-(2-acetamidopyridin-4-yl)-3-(6-methoxypyridin-3-yl)-1H-pyrrolo[3,2-b]pyridine-7-carboxamide]
0.32 µM | 6.65 µM | CC(=O)Nc1cc(-c2[nH]c3c(C(=O)NC(CO)CO)cc(Cl)nc3c2-c2cccnc2)ccn1 [Example 60, 5-Chloro-N-(1,3-dihydroxypropan-2-yl)-2-(2-acetamidopyridin-4-yl)-3-(pyridin-3-yl)-1H-pyrrolo[3,2-b]pyridine-7-carboxamide]
0.005 µM | 0.98 µM | CC(=O)Nc1cc(-c2[nH]c3c(Cl)ccnc3c2-c2ccc(F)cn2)ccn1 [Example 61, N-{4-[7-Chloro-3-(5-fluoropyridin-2-yl)-1H-pyrrolo[3,2-b]pyridin-2-yl]pyridin-2-yl}acetamide]
0.009 µM | > 15 µM | COc1ccc(-c2c(-c3ccnc(NC(C)=O)c3)[nH]c3c(Cl)ccnc23)nc1 [Example 62, N-{4-[7-Chloro-3-(5-methoxypyridin-2-yl)-1H-pyrrolo[3,2-b]pyridin-2-yl]pyridin-2-yl}acetamide]
